{"source": "patent EP4744680A1", "about": "“TARGETED CHEMICAL DRUG AND PREPARATION METHOD THEREFOR, PHARMACEUTICAL COMPOSITION, AND USE OF TARGETED CHEMICAL DRUG” (Bai Yao Zhi Da (Beijing) Nanobio Technology Co., Ltd., priority 2023, dated 2025)", "key": {"[1]": {"test": "Body weight in the A549 study of the Example 3 drug", "format": "in vivo, mouse (BALB/c-nu)", "method": "Body weight is measured twice per week.Data are recorded and changes analyzed."}, "A549 lung carcinoma": {"system": "A549 lung carcinoma", "test": "In-vivo efficacy study in the A549 mouse lung carcinoma model (drugs of Example 6 and Example 20)", "design": "species or system mouse (BALB/cAnSlacNifdc-nu)", "conditions": "for Tumor growth inhibition rate (TGI, %) at different days post-inoculation: 0.12mg/20g i.v. (tail vein) once weekly, 3 administrations", "from_the_text": "• Species/strain: BALB/cAnSlacNifdc-nu • Sex: Male • Body weight: 17-21 g\n1).Inoculation and grouping: For the A549 mouse lung carcinoma model, male BALB/cAnSlacNifdc-nu mice weighing 17.0-21.0 g were used. Under aseptic conditions, A549 tumor tissue was excised and cut into 2.0 mm × 2.0 mm × 2.0 mm tumor blocks, which were implanted subcutaneously into the left axillary dorsal region of nude mice. The day of implantation was designated as Day 0 (D0).When the tumor volume reached approximately 150.0 mm^3 (D7), animals were randomized by tumor volume into four groups: A (vehicle control), B, C, and D (drug), with 8 animals per group. On the day of randomization, all groups began intravenous (tail-vein) dosing. Groups A, B, C, and subgroup D1 were dosed once weekly for a total of 3 administrations; subgroup D2 was dosed twice weekly for a total of 6 administrations. 2).Dosing regimen: Table 34\nTumor size is measured twice per week using a vernier caliper. The long diameter (a) and short diameter (b) are recorded. Tumor volume is calculated as: V=0.5×a×b^2.\n(§1) RTV = Vt /V0 , [formula] where V0 is the tumor volume at grouping/first dosing (D0) and Vt is the tumor volume at each measurement time point."}, "[2]": {"test": "Body weight in the comparative N87 study", "format": "in vivo, mouse (BALB/c-nu)", "conditions": "0.12mg i.v. (tail vein) once weekly for 6 weeks"}, "[3]": {"test": "Body weight and general condition in the U251 study", "format": "in vivo, mouse (BALB/c nude)", "conditions": "Group 3, around D10 post-dosing; 6mg/Kg i.v. twice weekly; possibly due to drug toxicity", "method": "The relationship between body weight change and the dosing regimen is recorded.Survival and health status are also monitored, including activity levels and food intake during the dosing period. • c) Tumor and Organ Imaging: At the end of the dosing period, mice are euthanized, and their brain, heart, liver, spleen, lungs, and kidneys are excised."}, "[4]": {"test": "Body weight in the N87 study of the Example 5 drug", "format": "in vivo, mouse (BALB/c nude)", "conditions": "0.12mg i.v. (tail vein) once every 5 days, 5 administrations", "method": "Body weight is measured three times per week.Data are recorded and changes analyzed."}, "[5]": {"test": "Body weight in the N87 study of the Example 1 drug", "format": "in vivo, mouse (BALB/c nude)", "conditions": "0.06mg i.v. (tail vein) twice per week for 5 weeks"}, "[6]": {"system": "N87 human gastric carcinoma", "test": "Comparative in-vivo efficacy test in the N87 mouse gastric carcinoma model (drugs of Example 5 and Example 7)", "design": "species or system mouse (BALB/c-nu)", "from_the_text": "• Species/strain: BALB/c nude (BALB/c-nu) • Age: 6-8 weeks • Sex: Male • Body weight: 17-19 g\n1).Inoculation and grouping: For the N87 human gastric carcinoma model, male BALB/c-nu mice (17.0-19.0 g) were used.Under aseptic conditions, N87 tumor tissue was excised and cut into 2.0 mm × 2.0 mm × 2.0 mm tumor blocks, which were implanted subcutaneously into the left axillary dorsal region of each nude mouse. The day of implantation was designated as Day 0 (D0).When tumor volume reached approximately 250.0 mm^3 (D6), animals with poor tumor take were excluded, and the remaining animals were randomized into groups according to tumor volume; dosing commenced on the day of randomization. 2).Dosing regimen: Table 27\nTumor size is measured three times per week using a vernier caliper. The long diameter (a) and short diameter (b) are recorded. Tumor volume is calculated as: V=0.5×a×b^2\nas §1"}, "N87 gastric cancer": {"system": "N87 gastric cancer", "test": "In vivo antitumor efficacy in an N87 gastric cancer mouse model (drug of Example 5)", "design": "species or system mouse (BALB/c nude)", "conditions": "0.12mg i.v. (tail vein) once every 5 days, 5 administrations", "experimental": "• 1. Cell culture and preparation: Thaw cells and seed into the corresponding medium (RPMI-1640 basal medium + 10% FBS + 1% penicillin/streptomycin [P/S]).\n• a) Discard the culture medium and gently rinse the cells with PBS twice. • b) Add an appropriate volume of 0.25% trypsin, digest in a 37 °C incubator for about 1-2 min until cells visibly round up; then add complete medium (RPMI-1640 + 10% FBS + 1% P/S) to neutralize the trypsin.Gently pipette to detach cells and subculture at the desired split ratio. • c) Split ratio: 1: 2-1: 4; the split ratio used in this experiment is 1: 3. • d) Passage frequency: Every 2-3 days, depending on seeding density and growth.\n• a) Harvest cells in logarithmic growth phase (~80-90% confluence recommended); • b) After trypsinization, add complete medium to terminate digestion; collect the suspension into centrifuge tubes and centrifuge at 1, 000 rpm for 5 min; • c) Wash the cell pellet twice with pre-chilled PBS and centrifuge each time; • d) Resuspend the pellet in PBS or serum-free medium to a final concentration of 2 × 10^7 cells/mL.\n• Injection site: Subcutaneous, right axillary-dorsal region. • Inoculum: 3 × 10^6 cells/mouse; 30 mice inoculated. • Injection volume: 0.1 mL. • Method: Tumor cell inoculation.\nThaw and expand N87 cells to the required quantity; adjust the cell concentration to 3 × 10^7 cells/mL with sterile PBS and keep on ice until use. Using a single-use sterile 1 mL syringe, draw 0.1 mL of the cell suspension and inject subcutaneously into the right axillary-dorsal region of each mouse. The day of inoculation is designated Day 0 (D0).\n• a)lmmediately before injection, thoroughly disperse the tumor cell suspension by pipetting to prevent cell clumping, which can reduce viability; • b)Restrain the mouse by grasping the dorsal neck skin with the thumb and forefinger while holding the tail with the little finger; • c)Using a disposable 1 mL syringe, inject the suspension subcutaneously; advance the needle slightly deeper under the skin (approximately 1 cm) to minimize leakage of the suspension from the needle tract;\nTumor size is measured three times per week using a vernier caliper. The long diameter (a) and the short diameter (b) are recorded. Tumor volume is calculated as: V=0.5×a×b^2.\nRTV is calculated as: RTV = Vt/V0, where V0 is the tumor volume at grouping and initial dosing (D0), and Vt is the tumor volume at each measurement time point.\nIRTW (%) = (Wcontrol group−Wtreatment group)/Wcontrol group × 100, [formula] where W denotes tumor weight.IRTW%>60% is considered effective."}, "[7]": {"conditions": "end of the study (D29), intravenous administration"}, "[8]": {"conditions": "41 days post-N87 inoculation, 0.12mg i.v. (tail vein) once weekly for 6 weeks"}}}
{"smiles": "COc1cccc2c1C(=O)c1c(O)c3c(c(O)c1C2=O)C[C@@](O)(C(=O)CO)C[C@@H]3O[C@H]1C[C@H](N)[C@@H](O)[C@H](C)O1", "note": "[Epirubicin drug substance (API), Epirubicin]", "values": [{"measurement": "Body-weight difference (g) between Day 32 and Day 5", "setting": "[1]; 0.08mg i.v. (tail vein) twice weekly for 5 weeks", "value": 6.3, "unit": "g"}, {"measurement": "Body-weight difference (g) between Day 32 and Day 5", "setting": "[1]; 0.12mg i.v. (tail vein) twice weekly for 5 weeks", "value": 6.1, "unit": "g"}, {"measurement": "Body-weight difference (g) between Day 32 and Day 5", "setting": "[1]; 0.14mg i.v. (tail vein) twice weekly for 5 weeks", "value": 0.2, "unit": "g"}, {"measurement": "Tumor growth inhibition rate (TGI, %) at different days post-inoculation", "setting": "A549 lung carcinoma; Day 11", "value": 27.01, "unit": "%"}, {"measurement": "Tumor growth inhibition rate (TGI, %) at different days post-inoculation", "setting": "A549 lung carcinoma; Day 14", "value": 45.82, "unit": "%"}, {"measurement": "Tumor growth inhibition rate (TGI, %) at different days post-inoculation", "setting": "A549 lung carcinoma; Day 18", "value": 43.61, "unit": "%"}, {"measurement": "Tumor growth inhibition rate (TGI, %) at different days post-inoculation", "setting": "A549 lung carcinoma; Day 21", "value": 44.97, "unit": "%"}, {"measurement": "Tumor growth inhibition rate (TGI, %) at different days post-inoculation", "setting": "A549 lung carcinoma; Day 25", "value": 46.31, "unit": "%"}, {"measurement": "Tumor growth inhibition rate (TGI, %) at different days post-inoculation", "setting": "A549 lung carcinoma; Day 29", "value": 49.64, "unit": "%"}, {"measurement": "T/C", "setting": "A549 lung carcinoma; [7]", "value": "greater than 40%"}, {"measurement": "tumor growth inhibition rate (calculated based on tumor volume)", "setting": "A549 lung carcinoma; [7]", "value": "less than 60%"}, {"measurement": "Body-weight difference (g) between Day 41 and Day 6", "setting": "[2]", "value": 3.29, "unit": "g"}, {"measurement": "body weight of the mice (and spontaneous activity)", "setting": "[3]", "value": "started to decrease"}, {"measurement": "Body-weight difference (g) between Day 23 and Day 5", "setting": "[4]", "value": -3.84, "unit": "g"}, {"measurement": "Body-weight difference between Day 37 and Day 6", "setting": "[5]", "value": 0.91, "unit": "g"}, {"measurement": "Tumor weight", "setting": "[6]; [8]", "value": "0.62 ± 0.55", "unit": "g"}, {"measurement": "Tumor-weight inhibition rate, IRTW (%)", "setting": "[6]; [8]", "value": 51.74, "unit": "%"}, {"measurement": "Tumor growth inhibition rate (TGI, %) at different post-inoculation days", "setting": "[6]; Day 10, 0.12mg i.v. (tail vein) once weekly for 6 weeks", "value": 41.17, "unit": "%"}, {"measurement": "Tumor growth inhibition rate (TGI, %) at different post-inoculation days", "setting": "[6]; Day 13, 0.12mg i.v. (tail vein) once weekly for 6 weeks", "value": 34.62, "unit": "%"}, {"measurement": "Tumor growth inhibition rate (TGI, %) at different post-inoculation days", "setting": "[6]; Day 17, 0.12mg i.v. (tail vein) once weekly for 6 weeks", "value": 37.16, "unit": "%"}, {"measurement": "Tumor growth inhibition rate (TGI, %) at different post-inoculation days", "setting": "[6]; Day 20, 0.12mg i.v. (tail vein) once weekly for 6 weeks", "value": 35.17, "unit": "%"}, {"measurement": "Tumor growth inhibition rate (TGI, %) at different post-inoculation days", "setting": "[6]; Day 24, 0.12mg i.v. (tail vein) once weekly for 6 weeks", "value": 43.86, "unit": "%"}, {"measurement": "Tumor growth inhibition rate (TGI, %) at different post-inoculation days", "setting": "[6]; Day 27, 0.12mg i.v. (tail vein) once weekly for 6 weeks", "value": 43.86, "unit": "%"}, {"measurement": "Tumor growth inhibition rate (TGI, %) at different post-inoculation days", "setting": "[6]; Day 31, 0.12mg i.v. (tail vein) once weekly for 6 weeks", "value": 44.19, "unit": "%"}, {"measurement": "Tumor growth inhibition rate (TGI, %) at different post-inoculation days", "setting": "[6]; Day 34, 0.12mg i.v. (tail vein) once weekly for 6 weeks", "value": 42.97, "unit": "%"}, {"measurement": "Tumor growth inhibition rate (TGI, %) at different post-inoculation days", "setting": "[6]; Day 38, 0.12mg i.v. (tail vein) once weekly for 6 weeks", "value": 40.97, "unit": "%"}, {"measurement": "Tumor growth inhibition rate (TGI, %) at different post-inoculation days", "setting": "[6]; Day 41, 0.12mg i.v. (tail vein) once weekly for 6 weeks", "value": 51.83, "unit": "%"}, {"measurement": "tumor growth inhibition rate calculated from tumor weight and tumor volume", "setting": "[6]; end of the study (D41), tail-vein injection", "value": "< 60", "unit": "%"}, {"measurement": "Inhibition rate (%) at different post-inoculation days", "setting": "N87 gastric cancer; Day 9", "value": 17.5, "unit": "%"}, {"measurement": "Inhibition rate (%) at different post-inoculation days", "setting": "N87 gastric cancer; Day 11", "value": 3.5, "unit": "%"}, {"measurement": "Inhibition rate (%) at different post-inoculation days", "setting": "N87 gastric cancer; Day 13", "value": 10.2, "unit": "%"}, {"measurement": "Inhibition rate (%) at different post-inoculation days", "setting": "N87 gastric cancer; Day 16", "value": 24.1, "unit": "%"}, {"measurement": "Inhibition rate (%) at different post-inoculation days", "setting": "N87 gastric cancer; Day 18", "value": 32.9, "unit": "%"}, {"measurement": "Inhibition rate (%) at different post-inoculation days", "setting": "N87 gastric cancer; Day 20", "value": 36.4, "unit": "%"}, {"measurement": "Inhibition rate (%) at different post-inoculation days", "setting": "N87 gastric cancer; Day 23", "value": 34.6, "unit": "%"}, {"measurement": "Tumor weight", "setting": "N87 gastric cancer; end of study", "value": "0.1751 ± 0.13", "unit": "g"}, {"measurement": "IRTW%", "setting": "N87 gastric cancer; inhibition rate of tumor weight", "value": 71.987, "unit": "%"}]}
